Several values for one entry are separate records, joined by “and”; a condition that tells them apart may be missing. Equal values may be shown once. Toxic doses and inconclusive results are not listed.
Test system: BDF1 mice, P388 leukemia (terephthalanilide-resistant), survival T/C
Experiment: NCI In Vivo Anticancer Drug Screen. Data for tumor model P388 Leukemia resistant to A Terephthalanilide; NSC 38280 (intraperitoneal) in B6D2F1 (BDF1) mice
Conditions: endpoint: median survival time, higher = longer survival
Method: The antitumor activity of compounds was measured in mice bearing transplantable tumors. Survival or tumor size were measured and the results are expressed as the measurement made in the treated group (T) divided by the measurement made in the vehicle treated control group (C). The tumor model used in this assay is P388 Leukemia resistant to A Terephthalanilide; NSC 38280 (intraperitoneal) in B6D2F1 (BDF1) mice

[1] = dose: 5.0 mg/kg/injection, schedule: Q01DX010 (ip), vehicle: saline
[2] = dose: 10.0 mg/kg/injection, schedule: Q01DX010 (ip), vehicle: saline
[3] = dose: 20.0 mg/kg/injection, schedule: Q01DX010 (ip), vehicle: saline
[4] = dose: 40.0 mg/kg/injection, schedule: Q01DX010 (ip), vehicle: saline
[5] = dose: 80.0 mg/kg/injection, schedule: Q01DX010 (ip), vehicle: saline
[6] = dose: 62.5 mg/kg/injection, schedule: Q01DX010 (ip), vehicle: saline
[7] = dose: 27.0 mg/kg/injection, schedule: Q01DX010 (ip), vehicle: saline
[8] = dose: 60.0 mg/kg/injection, schedule: Q01DX010 (ip), vehicle: saline
[9] = dose: 90.0 mg/kg/injection, schedule: Q01DX010 (ip), vehicle: saline
[10] = dose: 16.0 mg/kg/injection, schedule: Q01DX010 (ip), vehicle: saline
[11] = dose: 3.0 mg/kg/injection, schedule: Q01DX010 (ip), vehicle: saline
[12] = dose: 6.0 mg/kg/injection, schedule: Q01DX010 (ip), vehicle: saline
[13] = dose: 12.0 mg/kg/injection, schedule: Q01DX010 (ip), vehicle: saline
[14] = dose: 30.0 mg/kg/injection, schedule: Q01DX010 (ip), vehicle: saline
[15] = dose: 250.0 mg/kg/injection, schedule: Q01DX010 (ip), vehicle: saline
[16] = dose: 3.13 mg/kg/injection, schedule: Q01DX010 (ip), vehicle: saline

`O=c1cnn(C2OC(CO)C(O)C2O)c(=O)[nH]1` (stereo unspecified) was tested, and the T/C (dose: 800.0 mg/kg/injection, schedule: Q01DX010 (ip), vehicle: saline) was 120 % of control and the T/C (dose: 1600.0 mg/kg/injection, schedule: Q01DX010 (ip), vehicle: saline) was 110 % of control.
`O=c1[nH]c(=O)n(C2CC(O)C(CO)O2)cc1F` (stereo unspecified) was tested, and the T/C [1] was 100 % of control, the T/C [2] was 90 % of control and 104 % of control and the T/C [3] was 90 % of control and 113 % of control. For the same compound, the T/C [4] was 104 % of control and 118 % of control and the T/C [5] was 159 % of control.
In the case of `CCCSc1ncnc2nc[nH]c12`, the T/C (dose: 31.3 mg/kg/injection, schedule: Q01DX010 (ip), vehicle: saline) is reported as 118 % of control and the T/C [6] is reported as 112 % of control.
For `CN(N=O)C(=O)NC(C=O)C(O)C(O)C(O)CO` (stereo unspecified), the T/C [7] was 109 % of control, the T/C [4] was 113 % of control and the T/C [8] was 154 % of control. The T/C [9] was 113 % of control.
For `CN(C)c1ccc(Nc2c3ccccc3nc3ccccc23)cc1`, the T/C [10] was 95 % of control, the T/C (dose: 24.0 mg/kg/injection, schedule: Q01DX010 (ip), vehicle: saline) was 104 % of control and the T/C (dose: 36.0 mg/kg/injection, schedule: Q01DX010 (ip), vehicle: saline) was 100 % of control and 104 % of control and 108 % of control. For the same compound, the T/C (dose: 54.0 mg/kg/injection, schedule: Q01DX010 (ip), vehicle: saline) was 95 % of control and 100 % of control and 104 % of control and the T/C [5] was 90 % of control and 109 % of control.
In the case of `Cn1c(N)nc2nc[nH]c2c1=S`, the T/C [3] is reported as 100 % of control, the T/C [4] is reported as 100 % of control and the T/C [5] is reported as 95 % of control. For the same compound, the T/C (dose: 160.0 mg/kg/injection, schedule: Q01DX010 (ip), vehicle: saline) was 90 % of control.
`CN(Cc1cnc2nc(N)nc(N)c2n1)c1ccc(C(=O)N[C@@H](CCC(=O)O)C(=O)O)cc1` was tested, and the T/C (dose: 0.19 mg/kg/injection, schedule: Q01DX010 (ip), vehicle: other) was 122 % of control, the T/C (dose: 0.38 mg/kg/injection, schedule: Q01DX Z (ip), vehicle: saline) was 172 % of control and 195 % of control and the T/C (dose: 0.75 mg/kg/injection, schedule: Q01DX010 (ip), vehicle: other) was 194 % of control. The T/C (dose: 0.75 mg/kg/injection, schedule: Q01DX Z (ip), vehicle: saline) was 272 % of control and 277 % of control, the T/C (dose: 1.5 mg/kg/injection, schedule: Q01DX010 (ip), vehicle: other) was 216 % of control and the T/C (dose: 1.5 mg/kg/injection, schedule: Q01DX Z (ip), vehicle: saline) was 213 % of control and 272 % of control. The T/C (dose: 3.0 mg/kg/injection, schedule: Q01DX010 (ip), vehicle: other) was 111 % of control and the T/C (dose: 3.0 mg/kg/injection, schedule: Q01DX Z (ip), vehicle: saline) was 90 % of control and 95 % of control.
`N=C(N)c1ccc(Nc2ccc(C(=N)N)cc2)cc1` was tested, and the T/C [11] was 105 % of control, the T/C [12] was 100 % of control and the T/C [13] was 90 % of control.
In the case of `O=C1C(NC(=O)C2CCCCC2)=C(N2CC2)C(=O)C(NC(=O)C2CCCCC2)=C1N1CC1`, the T/C (dose: 200.0 mg/kg/injection, schedule: Q01DX010 (ip), vehicle: saline) is reported as 90 % of control.
With `Nc1ncnc2[nH]ncc12` the T/C (dose: 1.5 mg/kg/injection, schedule: Q01DX010 (ip), vehicle: saline) was 90 % of control and 95 % of control, the T/C [11] was 90 % of control and the T/C [12] was 90 % of control and 95 % of control. The T/C [13] was 90 % of control and 100 % of control.
With `CN(C)c1nc(N(C)C)nc(N(C)C)n1` the T/C (dose: 18.8 mg/kg/injection, schedule: Q01DX010 (ip), vehicle: saline) was 100 % of control and 116 % of control, the T/C (dose: 37.5 mg/kg/injection, schedule: Q01DX010 (ip), vehicle: saline) was 100 % of control and 105 % of control and the T/C (dose: 75.0 mg/kg/injection, schedule: Q01DX010 (ip), vehicle: saline) was 100 % of control and 111 % of control. The T/C (dose: 150.0 mg/kg/injection, schedule: Q01DX010 (ip), vehicle: saline) was 100 % of control and 105 % of control.
`O=C(Nc1ccc(NC(=O)Nc2ccc(C3=NCCN3)cc2)cc1)Nc1ccc(C2=NCCN2)cc1` was tested, and the T/C (dose: 110.0 mg/kg/injection, schedule: Q01DX010 (ip), vehicle: saline) was 111 % of control.
In the case of `N#CCSc1ncnc2nc[nH]c12`, the T/C (dose: 15.0 mg/kg/injection, schedule: Q01DX010 (ip), vehicle: saline) is reported as 100 % of control, the T/C [14] is reported as 100 % of control and the T/C [8] is reported as 105 % of control and 109 % of control. The T/C (dose: 120.0 mg/kg/injection, schedule: Q01DX010 (ip), vehicle: saline) was 100 % of control.
With `O=c1cn[nH]c(=O)[nH]1` the T/C [6] was 105 % of control, the T/C (dose: 125.0 mg/kg/injection, schedule: Q01DX010 (ip), vehicle: saline) was 111 % of control and the T/C [15] was 90 % of control and 105 % of control. For the same compound, the T/C (dose: 500.0 mg/kg/injection, schedule: Q01DX010 (ip), vehicle: saline) was 88 % of control.
For `CN=C(NC)c1ccc(NC(=O)Nc2ccc(NC(=O)Nc3ccc(C(=NC)NC)cc3)cc2)cc1`, the T/C (dose: 13.3 mg/kg/injection, schedule: Q01DX010 (ip), vehicle: saline) was 111 % of control, the T/C [3] was 94 % of control and the T/C [14] was 111 % of control.
`O[C@H](CN1CC1)[C@@H](O)CN1CC1` was tested, and the T/C (dose: 62.5 micrograms/kg/injection, schedule: Q01DX010 (ip), vehicle: saline) was 120 % of control, the T/C (dose: 125.0 micrograms/kg/injection, schedule: Q01DX010 (ip), vehicle: saline) was 200 % of control and the T/C (dose: 250.0 micrograms/kg/injection, schedule: Q01DX010 (ip), vehicle: saline) was 175 % of control. For the same compound, the T/C (dose: 500.0 micrograms/kg/injection, schedule: Q01DX010 (ip), vehicle: saline) was 120 % of control.
With `Nc1nc(N)c2nc(CNc3ccc(C(=O)NC(CCC(=O)O)C(=O)O)cc3)cnc2n1` (stereo unspecified) the T/C (dose: 25.0 micrograms/kg/injection, schedule: Q01DX010 (ip), vehicle: other) was 112 % of control, the T/C (dose: 50.0 micrograms/kg/injection, schedule: Q01DX010 (ip), vehicle: other) was 112 % of control and the T/C (dose: 200.0 micrograms/kg/injection, schedule: Q01DX010 (ip), vehicle: other) was 150 % of control.
With `CCCCn1cnc2c(=S)nc[nH]c21` the T/C [10] was 86 % of control and the T/C (dose: 32.0 mg/kg/injection, schedule: Q01DX010 (ip), vehicle: saline) was 90 % of control.
For `CC(=O)Nc1ccc2nc3ccc(NC(C)=O)cc3[n+](-c3ccccc3)c2c1`, the T/C (dose: 7.8 mg/kg/injection, schedule: Q01DX010 (ip), vehicle: saline) was 90 % of control and the T/C (dose: 15.6 mg/kg/injection, schedule: Q01DX010 (ip), vehicle: saline) was 90 % of control.
For `CN[C@H]1CCc2cc(OC)c(OC)c(OC)c2-c2ccc(OC)c(=O)cc21`, the T/C (dose: 0.63 mg/kg/injection, schedule: Q01DX010 (ip), vehicle: other) was 94 % of control and 110 % of control, the T/C (dose: 1.25 mg/kg/injection, schedule: Q01DX010 (ip), vehicle: other) was 100 % of control and 110 % of control and the T/C (dose: 2.5 mg/kg/injection, schedule: Q01DX010 (ip), vehicle: other) was 100 % of control and 120 % of control. For the same compound, the T/C (dose: 5.0 mg/kg/injection, schedule: Q01DX010 (ip), vehicle: other) was 88 % of control and 115 % of control.
In the case of `[I][Hg][CH2]C1COC([CH2][Hg][I])CO1` (stereo unspecified), the T/C (dose: 0.78 mg/kg/injection, schedule: Q01DX010 (ip), vehicle: saline) is reported as 91 % of control, the T/C (dose: 1.56 mg/kg/injection, schedule: Q01DX010 (ip), vehicle: saline) is reported as 95 % of control and the T/C [16] is reported as 91 % of control.
For `CC1CCOS(=O)O1` (stereo unspecified), the T/C [2] was 100 % of control, the T/C [3] was 95 % of control and the T/C [4] was 100 % of control.
For `CCCNc1ncnc2[nH]ncc12`, the T/C [16] was 95 % of control and 105 % of control, the T/C (dose: 6.25 mg/kg/injection, schedule: Q01DX010 (ip), vehicle: saline) was 100 % of control and the T/C (dose: 12.5 mg/kg/injection, schedule: Q01DX010 (ip), vehicle: saline) was 90 % of control and 94 % of control. For the same compound, the T/C (dose: 25.0 mg/kg/injection, schedule: Q01DX010 (ip), vehicle: saline) was 110 % of control and the T/C [15] was 111 % of control.
For `CN(N=O)C(N)=O`, the T/C [1] was 113 % of control and the T/C [3] was 118 % of control.
For `O=C(Nc1cccc(NC(=O)Nc2cccc(C3=NCCN3)c2)c1)Nc1cccc(C2=NCCN2)c1`, the T/C [7] was 111 % of control, the T/C [4] was 111 % of control and the T/C (dose: 66.0 mg/kg/injection, schedule: Q01DX010 (ip), vehicle: saline) was 111 % of control. The T/C [9] was 111 % of control.
